Patent publication EP4635944A1, “2-AZABICYCLO[3.1.1]HEPTANE COMPOUND” (Daiichi Sankyo Company, Limited, priority 2022, dated 2024)

Target: T1, human OX2R (Homo sapiens, UniProt O43614)
T1 construct: host or cells: CHO-K1 (Chinese Hamster Ovary K1)
T1 sequence (O43614 1-444): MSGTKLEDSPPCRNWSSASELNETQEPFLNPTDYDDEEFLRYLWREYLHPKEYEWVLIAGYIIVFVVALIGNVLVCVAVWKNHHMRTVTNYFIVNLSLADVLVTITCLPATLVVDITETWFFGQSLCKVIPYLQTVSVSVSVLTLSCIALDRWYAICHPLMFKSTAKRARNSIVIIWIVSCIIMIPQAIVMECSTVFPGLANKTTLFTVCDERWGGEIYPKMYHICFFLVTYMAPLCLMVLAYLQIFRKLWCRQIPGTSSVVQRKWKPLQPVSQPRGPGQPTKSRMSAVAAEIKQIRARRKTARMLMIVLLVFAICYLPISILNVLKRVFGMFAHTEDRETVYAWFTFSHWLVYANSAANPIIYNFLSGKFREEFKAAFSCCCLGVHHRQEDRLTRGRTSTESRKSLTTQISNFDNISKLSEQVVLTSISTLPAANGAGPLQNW
Assay: Evaluation of OX2R agonist activity (intracellular calcium, CHO-K1 cells with forced expression of human OX2R)
Type: cell-based
Settings: CHO-K1 cells expressing human OX2R; 100% = 5 µM of the reference compound; read-out: hOX2R EC50
Protocol: Evaluation of OX2R agonist activity
Chinese Hamster Ovary K1 (CHO-K1) cells (GenScript) with forced expression of human OX2R were seeded onto a 384 well microplate (Corning) at 7500 cells/well and cultured for 24 hours. 20 µL of the loading buffer (25 mM HEPES containing 1.25 mM of Probenecid and 2.5 µg/mL of Fluo 4-AM at final concentration, Hank's balanced salt solution, 0.06% Pluronic F-127, Quenching buffer) in the Calcium Kit II (DOJINDO LABORATORIES) was added, and the microplate was allowed to stand for 30 minutes. A reference compound (Example435 of WO 2019/027058, N-[(2S,3S)-2-[[3-(3,5-difluorophenyl)-2-fluoro-phenyl]methyl]-1-(2-hydroxy-2-methylpropanoyl)pyrrolidin-3-yl]ethanesulfonamide) or the test compound was added in 10 µL, and changes in intracellular calcium ion concentration were measured using FDSS7000EX (Hamamatsu Photonics K.K.) as a fluorescence intensity ratio obtained upon dual wavelength excitation at 480 nm and 540 nm. Note that the reference compound or test compound was dissolved in DMSO (final concentration of DMSO was 0.5%) and diluted with an assay buffer (20 mM HEPES, Hank's balanced salt solution, 0.1% BSA). The difference between the maximum and minimum fluorescence values between 5 and 7 seconds after the addition of the test compound or reference compound was used as the indicator. The value of wells to which the assay buffer containing no test compound was added was defined as 0%, and the value of wells to which 5 µM of the reference compound was added was defined as 100%. The 50% effective concentration (EC50 value) was determined from the values obtained when various concentrations of the test compound were added. […]

EC50 [nM] | Structure (SMILES)
83 | CC(C)(O)C(=O)N1C2CC(C2)[C@H](NS(C)(=O)=O)[C@@H]1Cc1cccc(-c2cccc(F)c2F)c1F [Example 8, N-{(3S,4S)-2-(2-Hydroxy-2-methylpropanoyl)-3-[(2,2',3'-trifluoro[biphenyl]-3-yl)methyl]-2-azabicyclo[3.1.1]heptan-4-yl}methanesulfonamide]
26 | CS(=O)(=O)N[C@@H]1[C@H](Cc2cccc(-c3ccccc3)c2F)N(C(=O)[C@H]2CCO2)C2CC1(F)C2 [Example 70, N-{(3S,4R)-5-Fluoro-3-[(2-fluoro[biphenyl]-3-yl)methyl]-2-[(2R)-oxetan-2-ylcarbonyl]-2-azabicyclo[3.1.1]heptan-4-yl}methanesulfonamide]
41 | CC(C)(O)C(=O)N1C2CC(F)(C2)[C@H](NS(C)(=O)=O)[C@@H]1Cc1cccc(-c2ccccc2)c1F [Example 50, N-[(3S,4R)-5-Fluoro-3-[(2-fluoro[biphenyl]-3-yl)methyl]-2-(2-hydroxy-2-methylpropanoyl)-2-azabicyclo[3.1.1]heptan-4-yl]methanesulfonamide]
15 | C[C@@H](O)C(=O)N1C2CC(C2)[C@H](NS(C)(=O)=O)[C@@H]1Cc1cccc(-c2cccc(C(F)F)c2)c1F [Example 24, N-{(3S,4S)-3-{[3'-(Difluoromethyl)-2-fluoro[biphenyl]-3-yl]methyl}-2-[(2R)-2-hydroxypropanoyl]-2-azabicyclo[3.1.1]heptan-4-yl}methanesulfonamide]
67 | CC(C)(O)C(=O)N1C2CC(C2)[C@H](NS(C)(=O)=O)[C@@H]1Cc1cccc(-c2cc(F)cc(F)c2)c1F (single isomer, unassigned) [Example 1]
33 | CO[C@H](C)C(=O)N1C2CC(C2)[C@H](NS(C)(=O)=O)[C@@H]1Cc1cccc(-c2cc(F)cc(F)c2)c1F [Example 48, N-{(3S,4S)-2-[(2R)-2-Methoxypropanoyl]-3-[(2,3',5'-trifluoro[biphenyl]-3-yl)methyl]-2-azabicyclo[3.1.1]heptan-4-yl}methanesulfonamide]
68 | C[C@@H](O)C(=O)N1C2CC(C2)[C@H](NS(C)(=O)=O)[C@@H]1Cc1cccc(-c2cccc3c2OC(F)(F)O3)c1F [Example 38, N-{(3S,4S)-3-[3-(2,2-Difluoro-1,3-benzodioxol-4-yl)-2-fluorobenzyl]-2-[(2R)-2-hydroxypropanoyl]-2-azabicyclo[3.1.1]heptan-4-yl}methanesulfonamide]
16 | CCS(=O)(=O)N[C@H]1C2CC(C2)N(C(=O)[C@@H](C)O)[C@H]1Cc1cccc(-c2ccccc2)c1F (single isomer, unassigned) [Example 80]
40 | CC(C)(O)C(=O)N1C2CC(F)(C2)C(NS(C)(=O)=O)C1Cc1cccc(-c2cccc(Cl)c2)c1F (single isomer, unassigned) [Example 61, N-[(3S,4R)-3-[(3'-Chloro-2-fluoro[biphenyl]-3-yl)methyl]-5-fluoro-2-(2-hydroxy-2-methylpropanoyl)-2-azabicyclo[3.1.1]heptan-4-yl]methanesulfonamide or N-[(3R,4S)-3-[(3'-chloro-2-fluoro[biphenyl]-3-yl)methyl]-5-fluoro-2-(2-hydroxy-2-methylpropanoyl)-2-azabicyclo[3.1.1]heptan-4-yl]methanesulfonamide]
62 | CS(=O)(=O)NC1C(Cc2cccc(-c3cc(F)cc(F)c3)c2F)N(C(=O)C2CC2)C2CC1(F)C2 (single isomer, unassigned) [Example 36, N-{(3S,4R)-2-(Cyclopropylcarbonyl)-5-fluoro-3-[(2,3',5'-trifluoro[biphenyl]-3-yl)methyl]-2-azabicyclo[3.1.1]heptan-4-yl}methanesulfonamide or N-{(3R,4S)-2-(cyclopropylcarbonyl)-5-fluoro-3-[(2,3',5'-trifluoro[biphenyl]-3-yl)methyl]-2-azabicyclo[3.1.1]heptan-4-yl}methanesulfonamide]
